Laboratory results from US20260216152A1, “Combinations Comprising Benzodioxol as GLP-1R Agonists for Use in the Treatment of NASH/NAFLD and Related Diseases” (Pfizer Inc., priority 2019, published 2026).
Blank lines part the entries; values can stand above or below the compound they belong to.

How the values were obtained:
[1] = in vivo; conditions: monkey
[2] = in vivo; conditions: rat
[3] = test system: rat ACC isozymes; assay: Inhibition of rat ACC isozymes, incorporation of [14C]-carbonate into [14C]-malonyl-CoA; assay type: biochemical; conditions: saturating concentrations of ATP
[4] = test system: human ACC isozymes; assay: Inhibition of human ACC isozymes, incorporation of [14C]-carbonate into [14C]-malonyl-CoA; assay type: biochemical; conditions: saturating concentrations of ATP
[5] = Circulating TGs in human subjects; assay type: in vivo
Text: (§1) It appears that the administration of an ACC inhibitor may have positive effects to lower hepatic TGs and potentially other beneficial effects on treatment of NASH.

[6] = test system: hepatic DNL; conditions: Phase 1 study, healthy adult subjects; cited from earlier work
[7] = Western diet fed Sprague Dawley rats, ACCi and DGAT2i as monotherapy and in combination (FIG. 10-18); assay type: in vivo
Text: as §1

[8] = test system: liver malonyl-CoA; assay: Liver malonyl-CoA in rats; assay type: in vivo
[9] = target: T1, recombinant human DGAT1 (hDGAT1) (Homo sapiens, UniProt O75907); assay: Selectivity by biochemical assessment versus hDGAT1; conditions: in vitro
T1 sequence (O75907 1-488): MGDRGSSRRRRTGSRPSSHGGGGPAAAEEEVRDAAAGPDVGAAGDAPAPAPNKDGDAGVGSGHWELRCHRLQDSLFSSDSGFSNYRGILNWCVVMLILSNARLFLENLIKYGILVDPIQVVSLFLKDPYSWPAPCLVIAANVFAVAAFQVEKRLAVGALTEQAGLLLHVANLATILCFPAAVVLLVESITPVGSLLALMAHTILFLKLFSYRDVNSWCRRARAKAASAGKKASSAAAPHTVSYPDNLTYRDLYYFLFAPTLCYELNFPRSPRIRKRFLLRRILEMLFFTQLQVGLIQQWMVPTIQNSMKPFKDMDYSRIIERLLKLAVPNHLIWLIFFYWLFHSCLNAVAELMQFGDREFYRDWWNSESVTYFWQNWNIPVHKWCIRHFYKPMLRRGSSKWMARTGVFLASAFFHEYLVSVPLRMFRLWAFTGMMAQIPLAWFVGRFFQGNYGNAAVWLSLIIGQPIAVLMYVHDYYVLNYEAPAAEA
Text: (§2) (S)-2-(5-((3-ethoxypyridin-2-yl)oxy)pyridin-3-yl)-N-(tetrahydrofuran-3-yl)pyrimidine-5-carboxamide is an oral, small molecule DGAT2 inhibitor that is postulated to decrease hepatic triglyceride (TG) synthesis and hepatic lipid burden in NAFLD and NASH.

[10] = target: monoacylglycerol acyltransferase 2 (MGAT2) (Homo sapiens, UniProt Q3SYC2); assay: Selectivity by biochemical assessment versus MGAT2; conditions: in vitro
monoacylglycerol acyltransferase 2 (MGAT2), sequence (Q3SYC2 whole entry): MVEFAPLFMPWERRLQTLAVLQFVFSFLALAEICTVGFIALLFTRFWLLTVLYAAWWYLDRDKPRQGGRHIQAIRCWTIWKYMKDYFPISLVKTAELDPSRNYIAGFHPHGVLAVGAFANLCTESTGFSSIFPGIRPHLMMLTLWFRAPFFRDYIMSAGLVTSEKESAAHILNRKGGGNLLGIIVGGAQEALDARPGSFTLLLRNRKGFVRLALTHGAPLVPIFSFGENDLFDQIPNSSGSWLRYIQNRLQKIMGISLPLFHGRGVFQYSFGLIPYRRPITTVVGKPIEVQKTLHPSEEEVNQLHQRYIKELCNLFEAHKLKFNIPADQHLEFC
Text: as §2

[11] = Longer-term studies in western diet fed rats; assay type: in vivo
Text: as §2

[12] = target: T2, MGAT3 (Homo sapiens, UniProt Q86VF5); assay: Selectivity by biochemical assessment versus MGAT3; conditions: in vitro
T2 sequence (Q86VF5 1-341): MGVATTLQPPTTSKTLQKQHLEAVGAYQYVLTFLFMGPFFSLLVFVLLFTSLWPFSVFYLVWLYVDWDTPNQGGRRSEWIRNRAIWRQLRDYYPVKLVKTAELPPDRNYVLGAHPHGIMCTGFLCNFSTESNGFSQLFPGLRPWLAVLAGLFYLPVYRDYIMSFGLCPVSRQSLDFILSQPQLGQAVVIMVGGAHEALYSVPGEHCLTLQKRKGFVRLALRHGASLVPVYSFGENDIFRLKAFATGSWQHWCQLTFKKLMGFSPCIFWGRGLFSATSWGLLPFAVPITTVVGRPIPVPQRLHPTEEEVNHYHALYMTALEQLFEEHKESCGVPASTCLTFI
Text: as §2

[13] = Plasma triacylglycerol in rats fed a sucrose-diet; assay type: in vivo
Text: as §2

[14] = target: T3, mouse MGAT1 (Mus musculus, UniProt Q91ZV4); assay: Selectivity by biochemical assessment versus mouse MGAT1; conditions: in vitro
T3 sequence (Q91ZV4 1-335): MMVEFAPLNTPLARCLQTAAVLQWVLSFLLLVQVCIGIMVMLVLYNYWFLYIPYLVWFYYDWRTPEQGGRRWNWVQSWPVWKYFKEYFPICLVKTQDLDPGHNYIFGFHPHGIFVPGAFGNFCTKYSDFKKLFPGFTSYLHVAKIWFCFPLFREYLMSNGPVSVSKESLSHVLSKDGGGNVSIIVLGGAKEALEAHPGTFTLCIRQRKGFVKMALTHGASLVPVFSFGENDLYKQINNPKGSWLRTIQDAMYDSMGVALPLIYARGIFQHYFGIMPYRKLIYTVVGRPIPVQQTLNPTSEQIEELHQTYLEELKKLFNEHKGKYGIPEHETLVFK
Text: as §2

[15] = test system: fructose-induced steatosis; assay: Dietary fructose-feeding model with Sprague Dawley rats; assay type: in vivo
Text: [(1R,5S,6R)-3-{2-[(2S)-2-methylazetidin-1-yl]-6-(trifluoromethyl)pyrimidin-4-yl}-3-azabicyclo[3.1.0]hex-6-yl]acetic acid is a potent reversible inhibitor of human KHK-C The fructose, not glucose, component of dietary sugar is unique in its ability to promote features of metabolic syndrome, including steatosis, insulin resistance, and obesity.

[16] = Thermodynamic stability of crystal forms versus water activity; assay type: physicochemical; conditions: ambient temperature; 0.2 = 20% RH
Method: Form 1 of Example ACCi is anhydrous and is thermodynamically stable below a water activity of about 0.2 (20% RH) at ambient temperature. Characteristic PXRD peaks of Form 1 of Example ACCi, expressed as 2θ+0.2° 2θ are at 9.6, 10.7, and 11.3.
Form 2 of Example ACCi is a trihydrate and is thermodynamically stable above a water activity of about 0.2 at ambient temperature and 20% RH. Characteristic PXRD peaks of Form 2 of Example ACCi, expressed as 2θ+0.2° 2θ are at 8.4, 9.0, 10.5, 15.0, and 24.7.

[17] = test system: circulating FGF19; assay: Circulating FGF19 levels after single and multiple doses; assay type: in vivo
Text: Pharmacological activation of […] has been proposed as a target for the treatment of NASH (Cariou 2008, Porez et al 2012). […] The nuclear receptor FXR, also known as the Bile Acid Receptor (BAR; NR1H4), is responsible for modulating bile acid production, conjugation, and elimination.

Structure (SMILES): COc1cc(C(=O)N2CCC3(CC2)CC(=O)c2c(cnn2C(C)C)C3)cc(-c2ccc(C(=O)O)cc2)n1 [Example ACCi, 4-(4-(1-isopropyl-7-oxo-1,4,6,7-tetrahydrospiro[indazole-5,4′-piperidine]-1′-carbonyl)-6-methoxypyridin-2-yl)benzoic Acid]
- Kp [1]: ≥ 100
- Kp [2]: ≥ 100
- inhibition of incorporation of [14C]-carbonate into [14C]-malonyl-CoA [3]: inhibited incorporation of [^14C]-carbonate into [^14C]-malonyl-CoA in a concentration-dependent manner
- inhibition of incorporation of [14C]-carbonate into [14C]-malonyl-CoA [4]: inhibited incorporation of [^14C]-carbonate into [^14C]-malonyl-CoA in a concentration-dependent manner
- circulating TGs [5]: elevations in circulating TGs
- hepatic DNL [6]: suppress hepatic DNL
- circulating TGs (generally measured from plasma) [7]: elevations in circulating TGs
- liver malonyl-CoA [8]: dose and free plasma concentration-dependent reductions in liver malonyl-CoA

Structure (SMILES): CCOc1cccnc1Oc1cncc(-c2ncc(C(=O)N[C@H]3CCOC3)cn2)c1 [Example DGAT2i, (S)-2-(5-((3-ethoxypyridin-2-yl)oxy)pyridin-3-yl)-N-(tetrahydrofuran-3-yl)pyrimidine-5-carboxamide]
- selectivity versus hDGAT1 [9]: > 2000 fold
- selectivity versus MGAT2 [10]: > 2000 fold
- hepatic lipid accumulation [11]: reduced
- plasma triacylglycerol [11]: reduced
- selectivity versus MGAT3 [12]: > 2000 fold
- plasma triacylglycerol [13]: robust, dose-dependent reduction of plasma triacylglycerol
- selectivity versus mouse MGAT1 [14]: > 2000 fold

Structure (SMILES): C[C@H]1CCN1c1nc(N2C[C@@H]3[C@@H](CC(=O)O)[C@@H]3C2)cc(C(F)(F)F)n1 [Example KHKi, [(1R,5S,6R)-3-{2-[(2S)-2-methylazetidin-1-yl]-6-(trifluoromethyl)pyrimidin-4-yl}-3-azabicyclo[3.1.0]hex-6-yl]Acetic acid]
- incidence of fructose-induced steatosis [15]: reduced the incidence of fructose-induced steatosis

Structure (SMILES): O=C(O)c1cc(F)c2nc(N3C4CC[C@H]3CC(OCc3c(-c5ccccc5OC(F)(F)F)noc3C3CC3)C4)sc2c1 (stereo partly drawn) [Tropifexor, 2-[(1R,3R,5S)-3-({5-cyclopropyl-3-[2-(trifluoromethoxy)phenyl]-1,2-oxazol-4-yl}methoxy)-8-azabicyclo[3.2.1]octan-8-yl]-4-fluoro-1,3-benzothiazole-6-carboxylic acid]
- circulating FGF19 levels [17]: robust, dose-dependent increase in circulating FGF19 levels

Next, values leading:

- water activity at which the form is thermodynamically stable [16]: < 0.2
Structure (SMILES): COc1cc(C(=O)N2CCC3(CC2)CC(=O)c2c(cnn2C(C)C)C3)cc(-c2ccc(C(=O)O)cc2)n1 [Form 1 of Example ACCi]

- water activity at which the form is thermodynamically stable [16]: > 0.2
Structure (SMILES): COc1cc(C(=O)N2CCC3(CC2)CC(=O)c2c(cnn2C(C)C)C3)cc(-c2ccc(C(=O)O)cc2)n1 [Form 2 of Example ACCi]
